# Values of other authors in US7189730B2, “A2A adenosine receptor antagonists” (CV Therapeutics, Inc., priority 2001, dated 2007).
# How the values were obtained:
# [1] = tested on: experimentally induced cataleptic responses; settings: in vivo
# [2] = tested on: haloperidol-induced catalepsy; settings: rat; Mandhane et al. 1997
smiles,measurement,setting,value
CCCn1c(=O)c2c(nc(/C=C/c3ccc(OC)c(OC)c3)n2C)n(CCC)c1=O [KF 17837],effect on experimentally induced cataleptic responses,[1],ameliorates
N[C@@H](Cc1ccc(O)c(O)c1)C(=O)O [L-DOPA],effect on haloperidol-induced catalepsy,[2],block
Cn1c(=O)c2[nH]cnc2n(C)c1=O [theophylline],improvement of symptoms in Parkinson's patients,Parkinson's patients,significant improvement of symptoms
